Experimental findings from patent publication US20260092061A1, “COMPOUNDS FOR TARGETED PROTEIN DEGRADATION” (Amphista Therapeutics Limited, priority 2022, published 2026) are described below.

The term Dmax denotes the largest share of the target that was removed. By DC50 is commonly meant the concentration at which degradation of the target reaches its halfway point.

The target in this test is T1, BRD9 (Homo sapiens, UniProt Q9H8M2).
T1 sequence (Q9H8M2 1-597): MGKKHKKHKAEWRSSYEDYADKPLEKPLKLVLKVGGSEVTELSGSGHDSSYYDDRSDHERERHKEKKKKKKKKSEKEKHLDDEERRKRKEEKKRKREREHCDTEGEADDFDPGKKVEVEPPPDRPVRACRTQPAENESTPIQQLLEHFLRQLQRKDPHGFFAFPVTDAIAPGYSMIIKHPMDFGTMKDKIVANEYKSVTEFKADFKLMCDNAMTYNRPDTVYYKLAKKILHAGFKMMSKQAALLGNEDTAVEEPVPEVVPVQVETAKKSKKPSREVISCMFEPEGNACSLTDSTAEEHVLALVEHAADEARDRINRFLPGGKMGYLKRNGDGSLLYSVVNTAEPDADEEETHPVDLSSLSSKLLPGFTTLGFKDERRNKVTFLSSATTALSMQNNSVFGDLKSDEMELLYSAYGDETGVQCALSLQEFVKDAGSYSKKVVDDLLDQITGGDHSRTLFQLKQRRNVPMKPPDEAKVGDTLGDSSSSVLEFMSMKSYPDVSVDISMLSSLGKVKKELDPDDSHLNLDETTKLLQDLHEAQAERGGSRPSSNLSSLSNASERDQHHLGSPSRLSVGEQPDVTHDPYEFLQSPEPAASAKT
As to the kind of experiment: BRD9 degradation, HiBiT-BRD9 KI HEK293 (LgBiT) cells, NanoGlo Lytic Endpoint assay (Assay Protocol 1). As to conditions: BRD9 degradation; for Dmax at 1 µM / DC50: Table 2, Assay Protocol 1; for Dmax at 1 µM: 1 μM compound at 6 h of treatment, read-out: Assay 1 Dmax; for DC50: 6 h of treatment, read-out: Assay 1 DC50. The test is classed as cell-based. On the procedure: HiBiT-BRD9 KI HEK293 (LgBiT) Cells (Promega CS3023412) were seeded at 8000 cells per well (38 μL) in sterile white bottom 384 well plates (Invitrogen 164610 or Greiner 781080) and incubated overnight at 37° C. with 5% CO2. The next day, compounds were prepared at 1000× final concentration in DMSO and diluted 1:100 in media (DMEM PAN Biotech P04-03550+10% FBS ATCC 302025). 4 μL compound was added to each well of the cell plate and incubated for 6 h at 37° C. with 5% CO2 BRD9 expression was quantified using the NanoGlo Lytic Endpoint assay (Promega N3050). The lytic buffer was equilibrated to room temperature for 10-15 min before lytic reagent was prepared by adding substrate (1:50) and LgBit protein (1:100) in lytic buffer. 40 μL lytic reagent mix was added to each well of the cel plate and plates were centrifuged briefly at ˜50g. Plates were incubated with shaking (350 RPM) for 12-24 min before reading using the LUM plus module of a BMG Pherastar FSX. Data was analysed using Dotmatics software and % BRD9 remaining was calculated by normalisation to average data from high and low control wells (DMSO treated cels and no cells respectively).
In general terms: With HiBiT, luminescence reflects the tagged protein that the partner subunit can reach.

Structures are written as SMILES. A value given as a limit tells only on which side of the number the result lay.

For the compound `COc1cc(-c2cn(C)c(=O)c3cnccc23)cc(OC)c1CN1CCN(Cc2cccc(C3CCCN3C(=O)/C(C#N)=C/c3nccs3)c2)CC1` (mixture of isomers) [Compound A33, (E/Z)-2-(2-(3-((4-(2,6-dimethoxy-4-(2-methyl-1-oxo-1,2-dihydro-2,7-naphthyridin-4-yl)benzyl)piperazin-1-yl)methyl)phenyl)pyrrolidine-1-carbonyl)-3(thiazol-2-yl)acrylonitrile], the DC50 is under 1.25 nM. Moreover, the Dmax at 1 µM (HEK293) is over 75%.

`COc1cc(-c2cn(C)c(=O)c3cnccc23)cc(OC)c1CN1CCN(Cc2cccc3c2CCN(C(=O)/C(C#N)=C\C(C)C)C3C)CC1` (mixture of isomers) [Compound A19, (E/Z)-2-(5-((4-(2,6-dimethoxy-4-(2-methyl-1-oxo-1,2-dihydro-2,7-naphthyridin-4-yl)benzyl)piperazin-1-yl)methyl)-1-methyl-1,2,3,4-tetrahydroisoquinoline-2-carbonyl)-4-methylpent-2-enenitrile]: the DC50 fell in the range of 1.25 to 10 nM. Further, the Dmax at 1 µM (HEK293) is 40 to 70%.

Turning to `COc1cc(-c2cn(C)c(=O)c(C)c2C)cc(OC)c1CN1CC2CC(C1)N2C(=O)/C(C#N)=C/c1nccs1` (mixture of isomers) [BRD9l, (E/Z)-2-(3-(2,6-dimethoxy-4-(1,4,5-trimethyl-6-oxo-1,6-dihydropyridin-3-yl)benzyl)-3,6-diazabicyclo[3.1.1]heptane-6-carbonyl)-3-(thiazol-2-yl)acrylonitrile], the Dmax (HEK293, Table 4, determined according to Assay Protocol 1, read-out: Dmax^1) was in the range of 50 to 70%.

For the compound `COc1cc(-c2cn(C)c(=O)c3cnccc23)cc(OC)c1CN1CCN(Cc2ccc(C3CCCN3C(=O)/C(C#N)=C/c3nccs3)cc2)CC1` (mixture of isomers) [Compound A38, (E/Z)-2-(2-(4-((4-(2,6-dimethoxy-4-(2-methyl-1-oxo-1,2-dihydro-2,7-naphthyridin-4-yl)benzyl)piperazin-1-yl)methyl)phenyl)pyrrolidine-1-carbonyl)-3-(thiazol-2-yl)acrylonitrile], the DC50 was 1.25 to 10 nM. The Dmax at 1 µM (HEK293) fell in the range of 40 to 70%.

On to `COc1cc(-c2cn(C)c(=O)c3cnccc23)cc(OC)c1CN1CCN(Cc2cccc3c2CCN(C(=O)/C(C#N)=C\C2CCC2)C3C)CC1` (mixture of isomers) [Compound A24, (E/Z)-3-cyclobutyl-2-(5-((4-(2,6-dimethoxy-4-(2-methyl-1-oxo-1,2-dihydro-2,7-naphthyridin-4-yl)benzyl)piperazin-1-yl)methyl)-1-methyl-1,2,3,4-tetrahydroisoquinoline-2-carbonyl)acrylonitrile], for which the half-maximal degradation concentration (DC50) is under 1.25 nM. Further, the Dmax at 1 µM (HEK293) lay in the range of 40 to 70%.

Regarding `COc1cc(-c2cn(C)c(=O)c(C)c2C)cc(OC)c1CN1CCN(Cc2cccc3c2CCN(C(=O)/C(C#N)=C/c2ccn(C)n2)C3C)CC1` (stereo not shown) [Compound A8, (E)-2-(5-((4-(2,6-dimethoxy-4-(1,4,5-trimethyl-6-oxo-1,6-dihydropyridin-3-yl)benzyl)piperazin-1-yl)methyl)-1-methyl-1,2,3,4-tetrahydroisoquinoline-2-carbonyl)-3-(1-methyl-1H-pyrazol-3-yl)acrylonitrile], the DC50 lay in the range of 10 to 25 nM. Besides, the Dmax at 1 µM (HEK293) fell in the range of 40 to 70%.

Turning to `COc1cc(-c2cn(C)c(=O)c3cnccc23)cc(OC)c1CN(C)Cc1ccc2c(c1)CCN(C(=O)/C(C#N)=C/C(C)(C)C)C2C` (mixture of isomers) [Compound A46], the 50% degradation concentration (DC50) is 1.25 to 10 nM. In addition, under “HEK293”, the Dmax at 1 µM lay in the range of 40 to 70%.

Take `COc1cc(-c2cn(C)c(=O)c(C)c2C)cc(OC)c1CN1CC2CC1CN2Cc1cccc2c1CCN(C(=O)/C(C#N)=C/c1cccc(Br)n1)C2C` (mixture of isomers) [Compound A64, (E/Z)-3-(6-bromopyridin-2-yl)-2-(5-((5-(2,6-dimethoxy-4-(1,4,5-trimethyl-6-oxo-1,6-dihydropyridin-3-yl)benzyl)-2,5-diazabicyclo[2.2.1]heptan-2-yl)methyl)-1-methyl-1,2,3,4-tetrahydroisoquinoline-2-carbonyl)acrylonitrile]: the DC50 lay within 1.25 to 10 nM. The Dmax at 1 µM (HEK293) was over 75%.

With `COc1cc(-c2cn(C)c(=O)c(C)c2C)cc(OC)c1CN1CCN(Cc2cccc3c2CCN(C(=O)/C(C#N)=C/c2nc4ccccc4s2)C3C)CC1` (mixture of isomers) [Compound A20], the DC50 was in the range of 1.25 to 10 nM. The Dmax at 1 µM (HEK293) was over 75%.

`COc1cc(-c2cn(C)c(=O)c3cnccc23)cc(OC)c1CN1CCN(Cc2cccc3c2CCN(C(=O)/C(C#N)=C/c2cccc(Br)n2)C3C)CC1` (mixture of isomers) [Compound A5, (E/Z)-3-(6-bromopyridin-2-yl)-2-(5-((4-(2,6-dimethoxy-4-(2-methyl-1-oxo-1,2-dihydro-2,7-naphthyridin-4-yl)benzyl)piperazin-1-yl)methyl)-1-methyl-1,2,3,4-tetrahydroisoquinoline-2-carbonyl)acrylonitrile]: the half-maximal degradation concentration (DC50) is under 1.25 nM. The Dmax at 1 µM (HEK293) was 40 to 70%.

On to `COc1cc(-c2cn(C)c(=O)c3cnccc23)cc(OC)c1CN1CCN(Cc2cccc3c2CCN(C(=O)/C(C#N)=C\c2ccon2)C3C)CC1` (mixture of isomers) [Compound A11, (E/Z)-2-(5-((4-(2,6-dimethoxy-4-(2-methyl-1-oxo-1,2-dihydro-2,7-naphthyridin-4-yl)benzyl)piperazin-1-yl)methyl)-1-methyl-1,2,3,4-tetrahydroisoquinoline-2-carbonyl)-3-(isoxazol-3-yl)acrylonitrile], for which the DC50 lay in the range of 1.25 to 10 nM. Where the note is “HEK293”, the Dmax at 1 µM was in the range of 40 to 70%.

On to `COc1cc(-c2cn(C)c(=O)c3cnccc23)cc(OC)c1CN(C)Cc1ccc2c(c1)C(C)N(C(=O)/C(C#N)=C/C(C)(C)C)CC2` (mixture of isomers) [Compound A47, (E/Z)-2-[7-[[2,6-dimethoxy-4-(2-methyl-1-oxo-2,7-naphthyridin-4-yl)phenylmethyl-methyl-amino]methyl]-1-methyl-3,4-dihydro-1H-isoquinoline-2-carbonyl]-4,4-dimethyl-pent-2-enenitrile], for which the DC50 fell in the range of 10 to 25 nM. Further, the Dmax at 1 µM (HEK293) was 40 to 70%.

Consider `COc1cc(-c2cn(C)c(=O)c3cnccc23)cc(OC)c1CN1CCN(Cc2cccc3c2CCN(C(=O)/C(C#N)=C\C2CCOCC2)C3C)CC1` (mixture of isomers) [Compound A17, (E/Z)-2-(5-((4-(2,6-dimethoxy-4-(2-methyl-1-oxo-1,2-dihydro-2,7-naphthyridin-4-yl)benzyl)piperazin-1-yl)methyl)-1-methyl-1,2,3,4-tetrahydroisoquinoline-2-carbonyl)-3-(tetrahydro-2H-pyran-4-yl)acrylonitrile], for which the DC50 was 1.25 to 10 nM. Moreover, for the setting “HEK293”, the Dmax at 1 µM fell in the range of 40 to 70%.

With `COc1cc(-c2cn(C)c(=O)c3cnccc23)cc(OC)c1CN1CC2CC1CN2Cc1cccc2c1CCN(C(=O)/C(C#N)=C/C(C)(C)C)C2C` (single isomer, unassigned) [Compound A39, (E/Z)-2-(5-((5-(2,6-dimethoxy-4-(2-methyl-1-oxo-1,2-dihydro-2,7-naphthyridin-4-yl)benzyl)-2,5-diazabicyclo[2.2.1]heptan-2-yl)methyl)-1-methyl-1,2,3,4-tetrahydroisoquinoline-2-carbonyl)-4,4-dimethylpent-2-enenitrile], the half-maximal degradation concentration (DC50) was 1.25 to 10 nM. The Dmax at 1 µM (HEK293) lay in the range of 40 to 70%.

Turning to `CCCC(c1ccc(CCC(=O)N2CCN(Cc3c(OC)cc(-c4cn(C)c(=O)c(C)c4C)cc3OC)CC2)cc1)N(C)C(=O)/C(C#N)=C/c1nccs1` (mixture of isomers) [Compound A58, (E/Z)-2-cyano-N-(1-(4-(3-(4-(2,6-dimethoxy-4-(1,4,5-trimethyl-6-oxo-1,6-dihydropyridin-3-yl)benzyl)piperazin-1-yl)-3-oxopropyl)phenyl)butyl)-N-methyl-3-(thiazol-2-yl)acrylamide], the DC50 fell in the range of 1.25 to 10 nM. The Dmax at 1 µM (HEK293) lay in the range of 40 to 70%.

With `COc1cc(-c2cn(C)c(=O)c3cnccc23)cc(OC)c1CN1C2CC1CN(Cc1cccc3c1CCN(C(=O)/C(C#N)=C/C(C)(C)C)C3C)C2` (mixture of isomers) [Compound A40], the DC50 lay within 10 to 25 nM. Further, the Dmax at 1 µM (HEK293) was 70 to 75%.
